Results from patent US20120004182A1, “PHARMACEUTICAL COMPOSITIONS AND METHODS FOR INDUCTION AND ENHANCEMENT OF APOPTOSIS IN TUMOR CELLS” (priority 2010, published 2012).

System: human breast tumors
Experiment: In vivo studies in nude mice bearing s.c. tumors
Settings: intraperitoneal, every 2 days, 10 days of treatment, 25 nmol antagonist, 1 μmol 4OH-Tamoxifen per mouse
Excerpt: Female athymic (nude) mice (CD1 nu/nu), 6 to 8 weeks old on arrival, were obtained from Charles River (Sulzfeld, Germany). The mice were housed in sterile cages in a temperature-controlled room with 12-hour light/12-hour dark schedule and were fed autoclaved chow and water ad libitum. All experiments were done according to the German ethical guidelines and the German laws for protection of animals.
Tumors were initiated by subcutaneous injection of 1×10^7 cancer cells into the right flank. After 2 weeks all animals had developed solid tumors of about 200 mm^3 and treatment was initiated. The in vivo experiments were done as follows: 25 nmol of GnRH-II antagonist of Seq. ID. No. 23 without or with 1 μmol of 40H-Tamoxifen per mouse (5 mice per group and control group) were injected intraperitoneally. Treatment was repeated every 2 days. Tumor volumes were measured. The mice were killed after 10 days of treatment. […]
The proliferation and induction of apoptosis were analyzed after treatment without or with a GnRH-II antagonist without or with co-treatment with 4OH-Tamoxifen. Nude mice bearing human breast tumors s.c. were treated without or with a GnRH-II antagonist alone or in combination with 4OH-Tamoxifen and the tumor volumes were measured.

Compound	tumor volume
Ac-D-2Nal-D-4 Cpa-D-3 Pal-Ser-His-D-3 Pal-Trp-Leu-Pro-D-Ala-NH2 [GnRH II antagonist]	increases
CC/C(=C(\c1ccccc1)c1ccc(OCCN(C)C)cc1)c1ccccc1 [Tamoxifen]	increases
